Among the data in ChEMBL document CHEMBL1125643, “N-(5-fluorobenzothiazol-2-yl)-2-guanidinothiazole-4-carboxamide. A novel, systemically active antitumor agent effective against 3LL Lewis lung carcinoma” (J Med Chem, 1991) are T/C, mortality and Lethality values, retold here.

Series [1] concerns Mus sp. The series can be described thus: In vivo activity measured against 3LL metastasis in BDF1 mice after ip administration at 16 mg/kg dose, dosing on days 3,7,11 after tumor challenge. To be noted: route intraperitoneal. The format is functional.
A short description of series [2]: Drug related lethality is percent animals in treated groups dying prior to first tumor related death in untreated groups measured in BDF1 mice after ip administration at 16 mg/kg dose days 3,7,11 after tumor challenge. The format is toxicity, organism-based. Further details: dose 16 mg/kg, route intraperitoneal. To be noted: BDF1, mus sp., in vivo, read-out: Lethality.

Series [3] deals with Mus sp. The series can be described thus: In vivo activity measured against 3LL metastasis in BDF1 mice after ip administration at 8 mg/kg dose, dosing on days 3,7,11 after tumor challenge. The format is functional. To be noted: route intraperitoneal.
Series [4] is described as follows: Drug related lethality is percent animals in treated groups dying prior to first tumor related death in untreated groups measured in BDF1 mice after ip administration at 32 mg/kg dose days 3,7,11 after tumor challenge. The format is toxicity, organism-based. More on the design: dose 32 mg/kg, route intraperitoneal. Particulars: BDF1, mus sp., in vivo, read-out: Lethality.

In series [5] the test system is Mus sp. As to the kind of experiment: In vivo activity measured against 3LL metastasis in BDF1 mice after ip administration at 32 mg/kg dose, dosing on days 3,7,11 after tumor challenge. The format is functional. To be noted: route intraperitoneal.
Series [6] can be described thus: Drug related lethality is percent animals in treated groups dying prior to first tumor related death in untreated groups measured in BDF1 mice after ip administration at 8 mg/kg dose days 3,7,11 after tumor challenge. The format is toxicity, organism-based. Further details: dose 8 mg/kg, route intraperitoneal. To be noted: BDF1, mus sp., in vivo, read-out: Lethality.

Series [7] relates to Mus sp. As to the kind of experiment: Drug related lethality is percent animals in treated groups dying prior to first tumor related death in untreated groups measured in BDF1 mice after ip administration at 10 mg/kg dose 3 days after tumor challenge. The format is toxicity, organism-based. Further details: dose 10 mg/kg, route intraperitoneal. To be noted: in vivo, 72 h.
The test system of series [8] is Mus sp. The series can be described thus: Drug related lethality is percent animals in treated groups dying prior to first tumor related death in untreated groups measured in BDF1 mice after ip administration at 5 mg/kg dose 3 days after tumor challenge. Particulars: in vivo, 72 h. Further details: dose 5 mg/kg, route intraperitoneal. The format is toxicity, organism-based.

The test system of series [9] is Mus sp. As to the kind of experiment: In vivo activity measured against 3LL metastasis in BDF1 mice after ip administration at 5 mg/kg dose, dosing on days 3 after tumor challenge. The format is functional, organism-based. More on the design: dose 5 mg/kg.
Series [10] relates to Mus sp. The series can be described thus: In vivo activity measured against 3LL metastasis in BDF1 mice after ip administration at 10 mg/kg dose, dosing on days 3 after tumor challenge. The format is functional, organism-based. Further details: dose 10 mg/kg.

Broadly, the T/C is the ratio of treated to control.

With `COc1cc([C@@H]2c3cc4c(cc3[C@@H](O[C@@H]3O[C@@H]5CO[C@@H](C)O[C@H]5[C@H](O)[C@H]3O)[C@H]3COC(=O)[C@H]23)OCO4)cc(OC)c1O` [ETOPOSIDE], the T/C with Mus sp. [1] was determined as 128%; in the series on Mus sp. [3] it was 118%; in the series on Mus sp. [5] it was 130%. For the same compound, the mortality in series [2] is 0%; in series [4], 7%; in [6], 0%.
Turning to CISPLATIN [listing 1 of 2 here], the Lethality with Mus sp. [7] and in the series with Mus sp. [8] was 0% throughout.
For the compound CISPLATIN [listing 2 of 2 here], the T/C in the series with Mus sp. [9] was found to be 112%; in the series on Mus sp. [10], 116%.
